Consider two molecules from patent US4221793A, “N,N'-Disubstituted piperazine derivative” (priority 1977, dated 1980).

Values after ≈ are worked out from the molar mass of the structure shown. Read-outs that look alike come from different tables or passages of the source.

Data set [1] has as its system isolated guinea-pig heart. In words: Activity on the isolated guinea-pig heart (Langendorff): coronary circulation and contraction level. To be noted: for Effect on coronary vessels / circulation / Influence on contraction level of the isolated heart: in words.
In data set [2] the test system is isolated guinea-pig intestines. Put plainly: Spasmolytic activity on isolated guinea-pig intestines (Magnus). To be noted: for IC50: Cavia porcellus. Here is the method:
The compound according to the invention has also been examined for its influenece on coronary circulation and on the heart mechanogram in isolated guinea-pig hearts according to the method of Langendorff (Langendorff, O., Pfluegers Arch. 61 (1895), 219) as well as for its spasmolytic activity on isolated guinea-pig intestines according to the method of Magnus (Magnus, R., Pflugers Arch. 102 (1904), 123). In this latter case, the spasmolytic activity was determined in relation to 0.2 μg/ml of histamine and 100 μg/ml of barium chloride.

In data set [3] the test system is mice. Put plainly: Tetrabenazine catalepsy test on mice, influence on the duration of catalepsy. Format: in vivo, mouse. To be noted: for Effect in tetrabenazine catalepsy test compared with imipramine: in words. The procedure: (§1) The pharmacological activity of the substance according to the invention was investigated in the tetrabenazine catalepsy test and in the reserpine antagonism test at the mouse.
Mice in groups of 10 animals each were given 15 mg/kg of tetrabenazine i.p. 30 minutes after administration of the test substance. The onset of a cataleptic condition is assessed on a 2-step round cork on to which the animals are placed so that they touch the bottom step with their head and forepaws and the upper step with their hind paws. Such a position is corrected immediately by a normal animal. For assessment, the reaction of the animals is observed every 60 seconds. The inhibition of catatonia is calculated in percentage values in relation to a control group.

The test system of data set [4] is mice. Put plainly: Reserpine antagonism test on mice. To be noted: in words. Format: in vivo, mouse.
Text: as §1

Data set [5] relates to mice. Particulars: mouse, in vivo, po.
Data set [6] in a line: Acute toxicity test on mice (LD50). To be noted: mouse, in vivo.
Data set [7] has as its system mice. Put plainly: Acute toxicity test on mice (LD50). Particulars: in words.
Data set [8] in a line: Side-effect activities (cardiotoxic, central nervous system, sedation, vegetative nervous system). To be noted: therapeutically relevant doses.
Where [9] appears, read: against 0.2 μg/ml histamine, read-out: Spasmolytic activity as ED50 relative to histamine.
Where [10] appears, read: against 100 μg/ml barium chloride, read-out: Spasmolytic activity as ED50 relative to BaCl2.

As for `CN(C)CCCN1c2ccccc2CCc2ccccc21` [Imipramine], the activation at 0.01 mg in data set [1] (Cavia porcellus, dose 10 μg, first value of pair, read-out: Change in coronary circulation (initial brief increase)) worked out at 19%. In addition, the inhibition at 0.01 mg in data set [1] (Cavia porcellus, dose 10 μg, read-out: Influence on contraction level) is 25%; in data set [1] (Cavia porcellus, dose 10 μg, second value of pair, read-out: Change in coronary circulation (subsequent constriction)), 18%. Also, the activation at 0.02 mg in data set [1] (Cavia porcellus, dose 20 μg, first value of pair, read-out: Change in coronary circulation (initial brief increase)) is 28%. Also, the inhibition at 0.02 mg was 25% in data set [1] (Cavia porcellus, dose 20 μg, read-out: Influence on contraction level) and 29% in data set [1] (Cavia porcellus, dose 20 μg, second value of pair, read-out: Change in coronary circulation (subsequent constriction)). Moreover, in data set [1] (Cavia porcellus, dose 30 μg, first value of pair, read-out: Change in coronary circulation (initial brief increase)), the activation at 0.03 mg came out at 84%. Further, the inhibition at 0.03 mg in data set [1] (Cavia porcellus, dose 30 μg, read-out: Influence on contraction level) was found to be 50%; in data set [1] (Cavia porcellus, dose 30 μg, second value of pair, read-out: Change in coronary circulation (subsequent constriction)), 22%. Moreover, the “Effect on coronary vessels / circulation” value in data set [1] is listed as “causes initially a brief increase in circulation, this then changes to a constriction”. Moreover, the “Influence on contraction level of the isolated heart” value in data set [1] is listed as “heart damage which is shown by the reduction of the heart contraction”. Moreover, the IC50 in data set [2] (setting [9]) is 0.001 µg/mL (≈ 0.00357 µM); in data set [2] (setting [10]) it was 0.1 to 1 µg/mL (≈ 0.357 to 3.57 µM).
Usually LD50 stands for the dose at which mortality reaches 50%. Low readings indicate greater toxicity, high ones lower toxicity. Turning to `COc1ccc2oc(C(=O)N3CCN(Cc4ccccc4)CC3)cc2c1` [According to the invention, N-(5-Methoxybenzofuran-2-ylcarbonyl)-N'-benzylpiperazine], the “Change of duration of catalepsy relative to control” value in data set [3] (20 mg/kg p.o., 20 min post appl., n=40) was -62 ± 26%. Moreover, the “Effect in tetrabenazine catalepsy test compared with imipramine” value in data set [3] is given as “substantially stronger effect than the comparison substance”. For the same molecule, the “Effect in tetrabenazine catalepsy test compared with imipramine” value in data set [3] (listed as substance according to the invention) is recorded as “substantially stronger effect than the commercially available comparison substance, imipramine”. The “Activity in reserpine antagonism test compared with comparison substance” value in data set [4] is recorded as “substantially equal in activity compared with the comparison substance”. In data set [1] (Cavia porcellus, dose 50 μg, read-out: Change in coronary circulation), the activation at 0.05 mg is 39%. Further, the inhibition at 0.05 mg in data set [1] (Cavia porcellus, dose 50 μg, read-out: Influence on contraction level) stood at 0%. Further, in data set [1], the “Effect on coronary vessels / circulation” value was “causes a dilation of the coronary vessels” and the “Influence on contraction level of the isolated heart” value is listed as “does not influence the contraction level of the isolated heart”. Further, the IC50 in data set [2] (setting [9]) fell in the range of 5 to 10 µg/mL (≈ 14.3 to 28.5 µM). Besides, the IC50 in data set [2] (setting [10]) fell in the range of 5 to 10 µg/mL (≈ 14.3 to 28.5 µM). Also, the Spasmolytic activity entry in data set [2] (in words) is listed as “only small”. In addition, the “Influence on the peripheral vegetative nervous system” value in data set [2] (in words, concluded from spasmolytic activity) is “influenced only slightly, if at all”. Moreover, the “Compatibility (tolerability) compared with comparison preparation” value in data set [5] is on record as “more than ten times more compatible than the comparison preparation”. In addition, the LD50 in data set [6] (ip) turned out to be 548 mg/kg. Besides, in data set [6] (po), the median lethal dose (LD50) is over 4000 mg/kg. Also, the “Toxicity compared with imipramine” value in data set [7] was “considerably lower toxicity”. For the same molecule, in data set [8], the Cardiotoxic activity entry is recorded as “has not shown in therapeutically relevant doses any cardiotoxic”, the “Central nervous system stimulation activity” value is “has not shown”, the “Influence on the vegetative nervous system” value was “has not shown” and the Sedation activity entry is on record as “has not shown”.
